Test results as given in patent publication US20240197738A1, “COMPOUND 7AI IN TREATING EWING SARCOMA BY INHIBITING OTUD7A” (The University of North Carolina at Chapel Hill, priority 2021, published 2024).

Tests used:
[1] = biological target: T1, His-tagged OTUD7A OTU domain (aa183-449) (Homo sapiens, UniProt Q8TE49); assay: Isothermal titration calorimetry (ITC) of 7Ai with OTUD7A OTU domain; conditions: bacterially produced His-tagged OTUD7A OTU domain (aa183-449), read-out: binding affinity of 7Ai in vitro (ITC)
T1 construct: the bacterially produced His-tagged OTUD7A OTU domain (aa183-449) was purified; made in house; host or cells: E. coli BL21 (pET28a vector)
T1 sequence (Q8TE49 183-449): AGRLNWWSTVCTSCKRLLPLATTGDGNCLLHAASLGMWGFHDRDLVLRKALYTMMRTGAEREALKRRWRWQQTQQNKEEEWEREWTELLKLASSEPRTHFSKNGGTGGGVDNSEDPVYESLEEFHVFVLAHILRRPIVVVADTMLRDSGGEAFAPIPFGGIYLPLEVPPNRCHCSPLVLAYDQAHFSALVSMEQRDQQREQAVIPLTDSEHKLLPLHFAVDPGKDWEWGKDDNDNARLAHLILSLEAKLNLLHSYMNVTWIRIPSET
Procedure: ITC measurements were performed using a MicroCal auto-iTC200 calorimeter (MicroCal, LLC) as described previously. Briefly, His-tagged OTU domain of OTUD7A proteins were purified using BL21 strain upon induced by 0.3 mM IPTG when OD600 around 0.6 overnight at 16° C. Then purified human His-tagged OTU domain of OTUD7A was dialyzed against 50 mM HEPES buffer (pH 7.2) with 100 mM NaCl for overnight at 4° C. The concentration of the protein was determined by band intensity in a gel-cod staining SDS-PAGE gel. The ITC assay was carried out at 37 °C. The dialyzed His-OTUD7A-OTU proteins were diluted to 40 μM in the dialysis buffer containing 4% DMSO. Then, 400 μM 7Ai, dissolved in the same dialysis buffer with 4% DMSO (50 mM HEPES buffer (pH 7.2) with 100 mM NaCl) was injected into 0.4 mL of His-OTUD7A-OTU protein in the chamber for every 180 s. The dissociation constants and thermodynamic parameters were determined by using the embedded software package Origin7 (Microcal).

[2] = biological target: T2, OTUD7A (Homo sapiens, UniProt Q8TE49); assay: Immunoblot of OTUD7A protein levels in Ewing cells; type: cell-based; conditions: A673 and SK-N-MC cells, 10 μM, 12 hrs
T2 construct: endogenous in cells; host or cells: A673 and SK-N-MC
T2 sequence (Q8TE49 whole entry): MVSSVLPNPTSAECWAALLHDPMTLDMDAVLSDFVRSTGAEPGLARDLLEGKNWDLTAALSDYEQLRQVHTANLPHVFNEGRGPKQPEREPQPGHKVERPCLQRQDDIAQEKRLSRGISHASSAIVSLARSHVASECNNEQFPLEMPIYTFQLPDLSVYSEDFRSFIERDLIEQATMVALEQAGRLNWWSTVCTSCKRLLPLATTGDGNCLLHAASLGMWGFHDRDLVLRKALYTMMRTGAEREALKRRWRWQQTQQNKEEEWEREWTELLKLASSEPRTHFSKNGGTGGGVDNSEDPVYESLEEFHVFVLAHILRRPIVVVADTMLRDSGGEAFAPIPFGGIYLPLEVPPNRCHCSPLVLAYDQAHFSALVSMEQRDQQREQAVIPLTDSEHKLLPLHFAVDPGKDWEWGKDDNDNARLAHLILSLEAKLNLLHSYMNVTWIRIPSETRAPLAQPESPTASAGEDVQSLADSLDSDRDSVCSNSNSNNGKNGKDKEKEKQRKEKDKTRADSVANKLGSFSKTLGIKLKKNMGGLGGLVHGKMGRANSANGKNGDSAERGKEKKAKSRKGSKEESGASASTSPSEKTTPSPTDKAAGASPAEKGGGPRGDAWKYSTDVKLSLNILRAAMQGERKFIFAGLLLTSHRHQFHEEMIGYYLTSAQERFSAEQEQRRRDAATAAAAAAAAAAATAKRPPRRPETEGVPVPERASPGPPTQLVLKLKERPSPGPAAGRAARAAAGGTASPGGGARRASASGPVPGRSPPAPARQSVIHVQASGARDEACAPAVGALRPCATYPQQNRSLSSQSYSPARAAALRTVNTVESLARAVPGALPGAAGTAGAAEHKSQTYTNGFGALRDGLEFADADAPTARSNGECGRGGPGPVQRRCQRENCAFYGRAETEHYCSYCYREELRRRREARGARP
Procedure: (§1) Cells were lysed in EBC buffer (50 mM Tris pH 7.5, 120 mM NaCl, 0.5% NP-40) or Triton X-100 buffer (50 mM Tris pH 7.5, 150 mM NaCl, 1% Triton X-100) supplemented with protease inhibitors (Complete Mini, Roche) and phosphatase inhibitors (phosphatase inhibitor cocktail set I and II, Calbiochem). The protein concentrations of whole cell lysates were measured by NanoDrop OneC using the Bio-Rad protein assay reagent as described previously. Equal amounts of whole cell lysates were resolved by SDS-PAGE and immunoblotted with indicated antibodies. For immunoprecipitations analysis, unless specified, 1000 μg lysates were incubated with the indicated antibody (1-2 μg) for 3-4 hr at 4° C. followed by 1 hr incubation with 10 μL Protein A magnetic beads (New England Biolabs). Or 1000 μg lysates containing tagged molecules were incubated with agarose beads coupled antibodies for the specific tag for 3-4 hr at 4° C. For endogenous IPs, incubation of cell lysates with antibodies was extended to overnight. The recovered immuno-complexes were washed five times with NETN buffer (20 mM Tris, pH 8.0, 100 mM NaCl, 1 mM EDTA and 0.5% NP-40) before being resolved by SDS-PAGE and immunoblotted with indicated antibodies.
Each compound was dissolved in DMSO with a concentration of 10 mM. […]

[3] = test system: A673 cells; assay: 2D colony formation assay, A673; type: cell-based, human; conditions: A673, 2-week treatment
Procedure: Indicated cells were seeded into 6-well plates (300 or 600 cells/well) or 6 cm dishes (500 or 1,000 cells/dish) and cultured in 37° C. incubator with 5% C02 for ˜14 days (as indicated in figure legends) until formation of visible colonies. Colonies were washed with 1×PBS and fixed with 10% acetic acid/10% methanol for 30 min, stained with 20% acidic acid/10% Methanol with 0.1% crystal violet until colonies were visibly stained. Colonies were then washed by tap water and air-dried. Colony numbers were manually counted. At least two independent experiments were performed to generate the error bars.

[4] = test system: A673 cells xenografted tumor; assay: Mouse xenograft assay with A673 cells; type: in vivo, nude mice
Procedure: All mouse work has been reviewed and approved by UNC Institutional Animal Care and Use Committee under IACUC #19-031. Mouse xenograft assays were performed as described previously. Briefly, for mouse xenograft experiments, 2.5×10^6 parental or EWS-FLI1-3A knockin A673 cells were mixed 1:1 with matrigel (Corning 354230) and injected into the flank of indicated female nude mice (NCRNU-M-M from UNC Animal Facility, 4 weeks old). Six days post-injection, when the tumors were established, 2% sucrose with or without 1 μg/mL tetracycline was supplied in water for mice and refreshed every 5 days. Tumor size was measured every two days with a digital caliper, and the tumor volume was determined with the formula: L×W^2×0.52, where L is the longest diameter and W is the shortest diameter. After 22 days, mice were sacrificed, and tumors were dissected and weighed.
For 7Ai treatment in nude mice, 2.5×10^6 A673 cells were mixed 1:1 with matrigel (Corning 354230) and injected into the flank of indicated female nude mice (NCRNU-M-M from UNC Animal Facility, 4 weeks old). Seven days post-injection, when the tumors were established, 100 μL 7Ai (25 mg/kg, dissolved in ethanol followed by the addition of sunflower oil and then sonicated at 4° C. in a water bath sonicator until 7Ai was completely dissolved) was given to mice through IP injections and this treatment was repeated every 3 days.
Freshly dissected xenografted tumors are immediately fixed in 10% formalin for 2 days before transferring to 80% ethanol for one day to prepare tumor blocks. 4-μm sections were cut from each of the tumor blocks by UNC TPL facility and used for IHC study. IHC was performed as described previously. Normal human tissue TMA was purchased from UNC TPL facility. Human Ewing sarcoma tissues were obtained post-mortem and fixed in 10% formalin and embedded in paraffin.

[5] = test system: FLI1; assay: Immunoblot of FLI1 proteins in normal control cells; type: cell-based, human; conditions: HUVEC and FF cells, doses of 7Ai for 3 days
Procedure: as §1

[6] = test system: Ewing sarcoma cell; assay: Ewing sarcoma cell growth in vitro (effective dose); type: cell-based, human
Procedure: 2,000 indicated cells were seeded in each well of 96-well plates for MTT assays to monitor cell viability at indicated time periods using a method adapted from https://www.thermofisher.com/us/en/home/references/protocols/cell-culture/mtt-assay-protocol/vybrant-mtt-cell-proliferation-assay-kit.html. Briefly, at indicated time points post-cell seeding, 10 μL MTT solution was added into each well and incubated in the culture incubator (37° C. with 5% CO2) for 4 hrs. Then medium was removed and 100 μL DMSO was added into each well to dissolve the formazan crystal and incubated for 10 min at 37° C. After thorough mixing, absorbance at 540 nm was measured using the BioTek Cytation 5 Cell Imaging reader.

## Cn1nccc1-c1cc(-c2ccnn2C)n2nc(C(=O)Nc3cnn(Cc4c(Cl)cccc4Cl)c3)cc2n1 [7Ai]
[1]
  Kd: ~1100 nM
[2]
  OTUD7A protein levels: without affecting OTUD7A protein levels
[3]
  colony formation ability: reduced colony formation ability
[4]; A673 xenograft in nude mice, 25 mg/kg IP, vs vehicle (FIG. 5P)
  tumor volume: significantly reduced tumor volume
[4]; A673 xenograft in nude mice, 25 mg/kg IP, vs vehicle (FIGS. 5Q-5R)
  tumor growth (dissected tumors, weight): significantly reduced
[4]; A673 xenograft tumors, IHC
  EWS-FLI1 protein in treated tumors: reduced EWS-FLI1 protein
  apoptosis in treated tumors (cleaved-caspase3 staining): increased apoptosis
  cell proliferation in treated tumors (Ki67 staining): reduced
[4]; nude mice, 25 mg/kg IP, 3-week treatment period
  body weight: did not significantly affect body weight
[5]
  FLI1 proteins: minimal effects on FLI1 proteins
[6]
  effective dose in retarding Ewing sarcoma cell growth in vitro: about 10 μM
